# Laboratory results reported in patent publication EP3419977B1, “PLATINUM(II) RING-FUSED CHLORINS, METHODS AND USES THEREOF” (Universidade de Coimbra, priority 2016, dated 2017).
# Like-named read-outs stand apart in the source and are kept apart here.
# Legend:
# [1] = in toluene, used as standard; cited from earlier work
# [2] = in water, used as standard for phosphorescence quantum yields; cited from earlier work
# [3] = tested on: human melanocytic melanoma cells (A375); assay: Photocytotoxicity (photodynamic treatment, MTT assay); format: cell-based; details: 24 h incubation, irradiated 7.5 mW/cm^2 to 10 J, red filter (cut off < 560 nm)
# Description: In an embodiment the photodynamic activity were as following: For each experiment, A375 cells were plated and kept in the incubator overnight, in order to allow the attachment of the cells. The initial formulation of the sensitizers consisted of a 1 mg/mL solution in DMSO and the desired concentrations were achieved by successive dilutions, being always administered to the cells at 1% DMSO. After sensitizer administration (from 1 nM to 10 µM), cells were incubated for 24 h. Controls were performed on every test. Cells were washed with PBS and new drug-free medium was added. Each plate was irradiated with a fluence rate of 7.5 mW/cm^2 until a total of 10 J was reached, using a light source equipped with a red filter (cut off < 560 nm).
# A375 cells = details: absence of light
# Description: In an embodiment the cell culture conditions were as following: The A375 (CRL1619) human melanoma cell lines were purchased from American Type Culture Collection and cultured according to standard procedures using the Dulbecco's Modified Eagle medium (Sigma-Aldrich, Inc; Sigma D-5648) supplemented with 10% heat-inactivated fetal bovine serum (Gibco Invitrogen Life Technologies; Gibco 2010-04), 1% Penicillin-Streptomycin (Gibco Invitrogen Life Technologies; 100 U/mL penicillin and 10 µg/mL streptomycin - Gibco 15140-122) and 100 µM sodium pyruvate (Gibco Invitrogen Life Technologies; Gibco 1360) at 37 °C, in a humidified incubator with 95% air and 5% CO2. For all studies, cells were detached using a solution of 0.25% trypsin-EDTA (Gibco).
# In an embodiment for the evaluation of photocytotoxicity a MTT assay was performed. Cell culture plates were washed and incubated with a solution of 3-(4,5-dimethylthiazol-2-yl)-2,5- diphenyltetrazolium bromide (0.5 mg/mL, Sigma) in PBS, pH 7.4, in the dark at 37 °C for 4 hours. To solubilize formazan crystals, a 0.04 M solution of hydrochloric acid in isopropanol was added. Absorbance was measured using a Biotek Synergy HT Plate Reader. Cytotoxicity was expressed as the inhibition percentage of cultures subjected to PDT, correlated with cultures only treated with the vehicle administration of sensitizers. […]
Molecule,IC50 [3],also measured
"C1=Cc2nc1c(-c1ccccc1)c1ccc([nH]1)c(-c1ccccc1)c1nc(c(-c3ccccc3)c3ccc([nH]3)c2-c2ccccc2)C=C1 [TPP, meso-tetraphenylporphyrin]",,φF [1]: 0.11
"[Ru+2].c1ccc(-c2ccccn2)nc1.c1ccc(-c2ccccn2)nc1.c1ccc(-c2ccccn2)nc1 [tris(2,2'-bipyridyl)ruthenium (II)]",,φF [2]: 0.042
"platinum (II) dimethyl 4,5,6,7-tetrahydropyrazolo[1,5-α]pyridine-2,3-dicarboxylate-fused chlorin [Chlorin 7b]",> 5 µM,
Photofrin@,0.156 µM,
"platinum (II) 2,3-dihydroxymethyl-4,5,6,7-tetrahydropyrazolo[1,5-α]pyridine-fused chlorin [Chlorin 8]",0.144 µM,IC50 (A375 cells): 22.3 µM
